Assays:
TGF-β1 = experiment: HHSC fibrosis marker gene expression, RT-PCR, TGF-β1; assay type: cell-based, human; settings: AT-II 10^-6M + LPS 10^-5M; ARB 10^-6M, obeticholic acid 5×10^-6M; 24 hours; monotherapy vs G2AL, combination vs monotherapy groups
Method: The various combined effects of obeticholic acid and three types of ARBs (losartan, valsartan, and candesartan) were confirmed in an in vitro cell system experiment. Specifically, using human hepatic stellate cells (HHSC), which are implicated in the main mechanism of progression of hepatic fibrosis in NASH, the effects of administration of obeticholic acid in combination with the three ARBs of inhibiting HHSC proliferation capacity and the expression of fibrosis markers were evaluated according to the following method. Human hepatic stellate cells (HHSC) (also referred to as human hepatic star cells) Obeticholic acid (obtained from Intercept Pharmaceuticals, Inc. via Sumitomo Dainippon Pharma Co., Ltd.) was used as an FXR agonist, and commercial losartan (potassium salt of losartan; referred to in this working example simply as “losartan”) and valsartan and candesartan ([…] of candesartan; referred to in this working example simply as “candesartan”) were used as ARBs. Angiotensin II (AT-II) and/or lipopolysaccharide (LPS) were used (both AT1-mediated AT-II signalling and TLR4-mediated LPS signaling are known to play major roles in HSC activation and the progression of hepatic fibrosis). With respect to the effect of inhibiting fibrosis marker gene expression, collagen production capacity and TGF-β production capacity were evaluated by the RT-PCR method. 1) HHSCs were inoculated onto a 6-well plate in the amount of 300,000 cells/2 ml and allowed to proliferate in 1% FBS DMEM medium for 24 hours. 2) After 24 hours, the cells were divided into the following 7 groups and transferred to culture medium after adding the following drugs and/or reagents. Losartan was used as an ARB. Negative control group (G1): No drugs added (control) […] AT-II (10^-6M) Positive control group L […]): LPS (10^-5M) Positive control group AL ([…]): (10^-6M)+LPS (10^-5M) Obeticholic acid administration (G3): AT-II (10^-6M)+LPS (10^-5M)+obeticholic acid (5×10^-6M) ARB administration (G4): AT-II (10^-6M)+LPS (10^-5M)+ARB (10^-6M) Obeticholic acid+ARB combined administration (G5): AT-II (10^-6M)+LPS (10^-5M)+obeticholic acid (5×10^-6M)+ARB (10^-6M) […] Evaluations were conducted in the five groups G1, G2AL, G3, G4, and G5.

[1] = system: C57Bl/6J mice fed a choline-deficient, amino acid-defined, high-fat diet (CDAHFD); experiment: Murine NASH model (CDAHFD-fed mice), H&E histology: liver cell swelling, fatty degeneration, NAS; assay type: in vivo, mouse; settings: obeticholic acid 30 mg/kg/day and/or losartan 30 mg/kg/day oral, 3 weeks from 2.5 weeks of diet
Source text: The accepted pathological diagnostic criterion for NASH is “observation of liver cell ballooning accompanied by inflammation in addition to large-droplet hepatic steatosis.” Matteoni et al. conducted a long-term follow-up study of patients with NAFLD, classifying the disease based on pathology findings into 4 types (type 1: fatty liver alone, type 2: fat accumulation plus inflammatory cell infiltration, type 3: fat accumulation plus ballooning hepatocyte degeneration, type 4: fat accumulation/ballooning hepatocyte degeneration plus Mallory-Denk bodies or fibrosis). […] In order to reduce differences among individual observers and institutions, the Nonalcoholic Steatohepatitis Clinical Research Network has proposed a pathodiagnostic scoring system in which the extent of fatty degeneration, inflammation, and hepatocyte ballooning is scored (NAS: NAFLD Activity Score) (Matteoni C A, Younossi Z M, Gramlich T, Boparai N, Liu Y C, McCullough A J: Nonalcoholic fatty liver disease: A spectrum of clinical and pathological severity. Gastroenterology, 116; 1413-1419, 1999). The pathodiagnostic standards making up the NASH score were evaluated using the following animal model, and the individual and combined effects of an FXR agonist (obeticholic acid) and an ARB (losartan) were studied. […]

Row | Compound | TGF-β1 mRNA expression induced by AT-II and LPS in HHSC (TGF-β1) | liver cell swelling (positive area rate, improvement) [1]
1 | CCCCc1nc(Cl)c(CO)n1Cc1ccc(-c2ccccc2-c2nn[nH]n2)cc1 [losartan] | statistically significant inhibition | no improving tendency whatsoever
2 | CC[C@H]1[C@@H](O)[C@@H]2[C@H](CC[C@]3(C)[C@@H]([C@H](C)CCC(=O)O)CC[C@@H]23)[C@@]2(C)CC[C@@H](O)C[C@@H]12 [obeticholic acid, 3α,7α-dihydroxy-6α-ethyl-5β-cholan-24-oic acid] | statistically significant inhibition | tended to be inhibited

Reference: patent US11419878B2, “Medicine obtained by combining FXR agonist and ARB” (Intercept Pharmaceuticals, Inc., priority 2016, dated 2022)
